This note sets out measurements from patent publication US4621090A, “Antifungal compositions” (Toyo Soda Manufacturing Co., Ltd., priority 1983, dated 1986).

A word on the MIC: it is the least concentration at which growth counts as inhibited. Low values mean a more susceptible organism, high ones a less susceptible organism.

Converted amounts (≈) assume the structure as drawn.

Test [1] deals with Trichophyton mentagraphytes MTU-19031. Kind of test: Minimum inhibitory concentration, anti-Trichophyton mentagraphytes activity test, strain MTU-19031. Conditions: 27° C., a week; for MIC: Trichophyton, MTU19031, Sabouraud's dextrose agar. It counts as cell-based. As to the method: (§1) The activity was tested by the 10 time-step dilution test, using the Sabouraud's dextrose agar culture medium (2% dextrose, 1% pepton and 1.5% agar; pH 6.5±). A platinum loopful (about 10 μl) spore suspension (prepared from a reserved strain of Trichlophyton mentagraphytes and containing 1×10^6 cells/ml) was applied in the form of drawn lines on a plate of a culture medium containing the active ingredients. The culture medium plate was kept at 27° C. for a week and then visually observed to see if any colonies had formed. The minimum inhibitory concentration was defined as the minimum concentration with which formation of distinct colonies on the culture medium plate was not observed.

In test [2] the test system is Trichophyton mentagraphytes MTU-19024. Kind of test: Minimum inhibitory concentration, anti-Trichophyton mentagraphytes activity test, strain MTU-19024. Conditions: 27° C., a week; for MIC: Trichophyton, MTU19024, Sabouraud's dextrose agar. It counts as cell-based. The protocol: as §1

As to `COc1cccc(N(C)C(=S)Oc2ccc3c(c2)C2CCC3C2)n1` (stereo not drawn) [compound 12, O--1,4-Methano-1,2,3,4-tetrahydro-6-naphthyl N--(6-methoxy-2-pyridyl)-N--methylthiocarbamate], the MIC in test [1] and in test [2] was 0.5 µg/mL (≈ 1.47 µM) in each case.

In the case of `CCc1ccc(OC(=S)N(C)c2cccc(OC)n2)cc1C` [compound 39, O--4-Ethyl-3-methylphenyl N--(6-methoxy-2-pyridyl)-N--methylthiocarbamate], the MIC in test [1] and in test [2] was 0.5 µg/mL (≈ 1.58 µM) throughout.

For `COc1cccc(N(C)C(=S)Oc2ccc(Br)c(C)c2)n1` [compound 46, O--4-Bromo-3-methylphenyl N--(6-methoxy-2-pyridyl)-N--methylthiocarbamate], the MIC in test [1] and in test [2] was 0.5 µg/mL (≈ 1.36 µM) in each case.

With `COc1cccc(N(C)C(=S)Oc2ccc(Cl)c(Cl)c2)n1` [compound 50, O--3,4-Dichlorophenyl N--(6-methoxy-2-pyridyl)-N--methylthiocarbamate], the minimum inhibitory concentration (MIC) in test [1] and in test [2] was 0.5 µg/mL (≈ 1.46 µM) throughout.

As for `CN(C)c1cccc(N(C)C(=S)Oc2ccc3ccccc3c2)n1` [compound 35, O--2-Naphthyl N--methyl-N--(6-dimethylamino-2-pyridyl)-thiocarbamate], the minimal inhibitory concentration (MIC) in test [1] and in test [2] was 0.5 µg/mL (≈ 1.48 µM) each time.

Regarding `COc1cccc(N(C)C(=O)Oc2ccc3c(c2)C2CCC3C2)n1` (stereo not drawn) [compound 13, 1,4-Methano-1,2,3,4-tetrahydro-6-naphthyl N--(6-methoxy-2-pyridyl)-N--methylcarbamate], the MIC in test [1] and in test [2] was 0.5 µg/mL (≈ 1.54 µM) each time.

`COc1cccc(N(C)C(=S)Oc2ccc(SC)cc2)n1` [compound 62, O--4-Methylthiophenyl N--(6-methoxy-2-pyridyl)-N--methylthiocarbamate]: the MIC was 0.05 µg/mL (≈ 0.156 µM) in test [1] and 0.5 µg/mL (≈ 1.56 µM) in test [2].

`COc1cccc(N(C)C(=S)Oc2ccc(Cl)c(C)c2)n1` [compound 38, O--4-Chloro-3-methylphenyl N--(6-methoxy-2-pyridyl)-N--methylthiocarbamate]: the MIC in test [1] turned out to be 0.05 µg/mL (≈ 0.155 µM); in test [2], 0.5 µg/mL (≈ 1.55 µM).

`COc1cccc(N(C)C(=S)Oc2ccc(C(C)C)c(C)c2)n1` [compound 41, O--4-Isopropyl-3-methylphenyl N--(6-methoxy-2-pyridyl)-N--methylthiocarbamate]: the minimum inhibitory concentration (MIC) in test [1] and in test [2] was 0.5 µg/mL (≈ 1.51 µM) in each case.

As to `COc1cccc(N(C)C(=S)Oc2ccc(SC)c(C)c2)n1` [compound 67, O--3-Methyl-4-methylthiophenyl N--(6-methoxy-2-pyridyl)-N--methylthiocarbamate], the MIC in test [1] and in test [2] was 0.5 µg/mL (≈ 1.49 µM) throughout.

In the case of `Cc1cc(C)nc(N(C)C(=S)Oc2ccc3ccccc3c2)c1` [compound 14, O--2-Naphthyl N--methyl-N--(4,6,-dimethyl-2-pyridyl)thiocarbamate], the MIC in test [1] and in test [2] was 0.5 µg/mL (≈ 1.55 µM) throughout.

Regarding `COc1cccc(N(C)C(=S)Oc2ccc(C)c(C)c2)n1` [compound 22, O--3,4-Dimethylphenyl N--(6-methoxy-2-pyridyl)-N--methylthiocarbamate], the MIC in test [1] and in test [2] was 0.5 µg/mL (≈ 1.65 µM) each time.

On to “O--Methyl-4-nitrophenyl N--(6-methoxy-2-pyridyl)-N--methylthiocarbamate [compound 66]”, for which the Minimum inhibitory concentration in test [1] (Sabouraud's dextrose agar) and in test [2] (Sabouraud's dextrose agar) was 0.5 µg/mL throughout.

With `C=C(C)c1ccc(OC(=S)N(C)c2cccc(OC)n2)cc1` [compound 56, O--4-Isopropenylphenyl N--(6-methoxy-2-pyridyl)-N--methylthiocarbamate], the MIC in test [1] and in test [2] was 0.5 µg/mL (≈ 1.59 µM) throughout.

As for `COc1cccc(N(C)C(=S)Oc2ccc(C(C)(C)C)cc2)n1` [compound 16, O--4-t-Butylphenyl N--(6-methoxy-2-pyridyl)-N--methylthiocarbamate], the MIC in test [1] and in test [2] was 0.5 µg/mL (≈ 1.51 µM) each time.
